Reference: paper PMC10606834, “Is the Neuropeptide PEN a Ligand of GPR83?” (International Journal of Molecular Sciences, 2023)
Entries after “also recorded” stand apart in the source; their conditions may differ.

Key:
[1] = tested on: GPR83 and deletion variant GPR83del (untagged or HA-tagged, U2OS clones); test: Intracellular calcium mobilization, U2OS cells; type: cell-based, human; conditions: 10 µM PEN, controls co mix or 50 µM ionomycin, traces over 60 s, ligand added 10 s after start of recording, Fluo4-AM, duplicate, repeated at least two times
Procedure: As activation of many GPCRs is coupled to calcium mobilization from intracellular stores, GPR83 was probed for ligand-dependent calcium release. Wild-type HEK293 cells and HEK293 clones overexpressing either full-length GPR83 or the N-terminal deletion variant GPR83del were exposed to buffer or one of two independent synthesis batches (PEN #1 and PEN #2) of the neuropeptide PEN, while calcium indicator fluorescence was recorded. […] Calcium release was also tested in a second cell line, osteosarcoma U2OS cells, using various stably expressing clones. […] Therefore, HEK293 cells transfected with Gα16 were employed to investigate a potential GPR83-dependent calcium mobilization with PEN. […] A number of GPCRs show ligand-independent basal calcium activity. […]
Figure 2 Investigation of ligand-dependent and ligand-independent intracellular calcium mobilization. […] (B) Calcium indicator fluorescence intensity traces over 60 s of various U2OS cell clones overexpressing untagged or HA-tagged GPR83 or the deletion variant GPR83del before and after the addition of buffer or ligand (co mix as in (A) or 50 µM ionomycin or 10 µM PEN). […]
Cells were seeded at 50,000 cells/well in a poly-D-lysine coated 96-well black well/clear bottom plate (BD Falcon, Franklin Lakes, NJ, USA) and cultured overnight. […] Fluorescence data were generated in duplicate, and experiments were repeated at least two times.

[2] = tested on: GPR83 (HTLA cells); test: TANGO β-arrestin assay, GPR83; type: cell-based, human; conditions: ligand library containing PEN (library plates 10 µM); HTLA cells expressing GPR83; PRESTO-Tango, RLU
Procedure: The TANGO assay reports GPCR-related activation of β-arrestin using a luminescent readout.
For the determination of β-arrestin recruitment after GPCR activation, the PRESTO-Tango system was utilized. On day one, HTLA cells (HEK293 cell line stably expressing a tTA-dependent luciferase reporter and a β-arrestin2-TEV fusion gene, maintained in RPMI supplemented with 10% FBS, 2 μg/mL puromycin, and 100 μg/mL hygromycin) were seeded into 150 mm cell culture plates at 1 × 10^7 cells per well in 30 mL of medium. The next day, transfections were performed directly in the 150 mm plates using jetPEI (Polyplus, Illkirch, France). Plasmid DNA of interest was prepared for transfection following the jetPEI protocol and with a DNA/jetPEI ratio of 1:1. A GFP-encoding plasmid was added as a transfection control (GFP plasmid added as 10% of total DNA to the total NaCl used for plasmid DNA dilution). On day 3, transfected cells were transferred at 15,000 cells per well in 30 μL of medium into 384-well black well, clear bottom plates. On day 4, ligand library multiwall plates (10 µM) were thawed, and 23 μL was added to each well. On day 5, 50 μL per well of BrightGlo luminescence reagent (diluted 10-fold with HBSS buffer) was carefully added, and plates were incubated for 10 min before luminescence reading in the EnVision 2103 Multilabel Reader (Perkin Elmer).

AADHDVGSELPPEGVLGALLRV [PEN, batch #1 synthesized, batch #2 purchased from Phoenix Pharmaceuticals]
enhancement of calcium indicator fluorescence [1]: PEN did not | β-arrestin activation (luminescence) [2]: no reactivity was detected; also recorded: failed to generate a signal
